Source: patent US20070178436A1, “Method of inactivating virus in circular blood and its applications in treating viral diseases” (Beijing Jingjing Medical Equipment CO., Ltd., priority 2003, published 2007)
Where two headings read alike, the source gives them in different places.

Tests used:
[1] = system: VSV; assay type: cell-based, vesicular stomatitis virus; conditions: for residual virus VSV: 1500 ml plasma, bag with three pressed folded lines
[2] = system: Sindbis virus (SV); assay type: cell-based
[3] = Impact on the content of the plasma protein (automatic biochemical analyzer); conditions: 60 minutes of circulatory processing
[4] = system: clotting factors of plasma; test: Clotting factors before and after processing, automated coagulation analyzer; conditions: 60 minutes of circulatory processing
[5] = Impact on the pH value of whole blood; assay type: physicochemical; conditions: for pH value in whole blood: 60 minutes of circulatory processing
[6] = system: clotting factor VIII; test: Impact on the activity of clotting factor VIII (detection kit); conditions: 60-minute circulatory processing
[7] = Impact on the content of Inorganic Salt (automatic biochemical analyzer); conditions: 60 minutes of circulatory processing
[8] = system: clotting factor IX; test: Impact on the activity of clotting factor IX (detection kit); conditions: for Activity of factor IX (%): 60 minutes of circulatory processing
[9] = system: complement C3; test: Impact on the content of complement C3 (single-diffusion plate); conditions: 60 minutes of circulatory processing
[10] = system: Sindbis; assay type: cell-based, Sindbis virus
[11] = system: VSV (vesicular stomatitis virus); assay type: cell-based

## CN(C)c1ccc2nc3ccc(=[N+](C)C)cc-3sc2c1 [methylene blue]
[1]; Illumination time 1 h, 50 ml/min
  residual virus VSV: 2.63 Lg TCID50
[1]; Illumination time 2 h, 50 ml/min
  residual virus VSV: −0.13 Lg TCID50
[1]; Illumination time 4 h, 50 ml/min
  residual virus VSV: ≦−0.50 Lg TCID50
[1]; Simulation 1, 1500 ml plasma, 50 ml/min
  reduction of virus titer VSV: over 5.0 Lg TCID50
[1]; illumination path 2.0 m, illumination time 26.0 sec, 50 ml/min
  virus liter left VSV: ≦−0.5 Lg TCID50
[1]; illumination path 2 meter, 26 seconds, 50 ml/min
  VSV illuminated (titer reduction): more than 5 LgTCID50
[1]; illumination path 2.5 m, illumination time 32.5 sec, 50 ml/min
  virus liter left VSV: ≦−0.5 Lg TCID50
[1]; illumination path 3.0 m, illumination time 39.0 sec, 50 ml/min
  virus liter left VSV: ≦−0.5 Lg TCID50
[1]; illumination path 3.5 m, illumination time 45.5 sec, 50 ml/min
  virus liter left VSV: ≦−0.5 Lg TCID50
[1]; illumination path 4.0 m, illumination time 52.0 sec, 50 ml/min
  virus liter left VSV: ≦−0.5 Lg TCID50
[1]; standard 15 cm bag with five pressed folded lines, plasma flowing speed 50
  virus titer left (VSV): ≦−0.50 Lg TCID50
[1]; standard 15 cm bag with five pressed folded lines, plasma flowing speed 80
  virus titer left (VSV): 0.13 Lg TCID50
[1]; standard 15 cm bag with three pressed folded lines, plasma flowing speed 50
  virus titer left (VSV): −0.25 Lg TCID50
[1]; standard 15 cm bag with three pressed folded lines, plasma flowing speed 80
  virus titer left (VSV): 1.50 Lg TCID50
[1]; standard 15 cm cut-through plasma bag, plasma flowing speed 50
  virus titer left (VSV): 4.25 Lg TCID50
[1]; standard 15 cm cut-through plasma bag, plasma flowing speed 80
  virus titer left (VSV): 5.13 Lg TCID50
[2]
  virus titer left Sindbis: ≦−0.05 lg TCID50
[3]
  Albumin content: 36.1 g/L
  Glucose content: 21.2 mM/l
  Total protein content: 58.8 g/L
  triglyceride content: 1.62 mM/l
[4]
  APTT clotting time: 74.0 ″
  Clotting factor II clotting time: 25.0 ″
  Clotting factor IX clotting time: 66.7 ″
  Clotting factor V clotting time: 31.8 ″
  Clotting factor VII clotting time: 26.8 ″
  Clotting factor VIII clotting time: 83.6 ″
  Clotting factor X clotting time: 32.6 ″
  Clotting factor XI clotting time: 82.6 ″
  Clotting factor XII clotting time: 70.2 ″
  PT clotting time: 19.6 ″
[4]; versus control plasma
  APTT (reduced): 17.5%
  Clotting factor II (reduced): 1.6%
  Clotting factor IX (reduced): 4.9%
  Clotting factor V (reduced): 8.9%
  Clotting factor VII (reduced): 7.2%
  Clotting factor VIII (reduced): 7.2%
  Clotting factor XI (reduced): 6.7%
  Clotting factor XII (reduced): 3.7%
  PT (reduced): 31.5%
[5]; batch I
  pH value in whole blood: 7.35
[5]; batch II
  pH value in whole blood: 7.38
[5]; batch III
  pH value in whole blood: 7.36
[5]; processing method of the invention
  change on the pH value of the whole blood: does not cause any change on the pH value
[6]
  range of decrease of the activity of clotting factor VIII: less than 20%
[7]
  Ca content: 1.57 mM/l
  Cho content: 3.82 mM/l
  Cl content: 58.7 mM/l
  K content: 3.22 mM/l
  Mg content: 0.67 mM/l
  Na content: 135.1 mM/l
  P content: 1.19 mM/l
[8]; 60-minute circulatory processing
  range of decrease of the activity of clotting factor IX: about 10%
[8]; batch I
  Activity of factor IX (%): 106.1%
[8]; batch II
  Activity of factor IX (%): 125.2%
[8]; batch III
  Activity of factor IX (%): 89.4%
[9]
  reduction of the content of the complement C3 compared to a reference: about 5%
[9]; batch I
  content of the complement C3: 5.64 mg/mL
[9]; batch II
  content of the complement C3: 5.43 mg/mL
[9]; batch III
  content of the complement C3: 5.61 mg/mL
[10]
  Sindbis virus illuminated (titer reduction): more than 5 LgTCID50
  reduction of virus titer Sindbis: over 5.0 Lg TCID50
  virus liter left Sindbis: ≦−0.5 Lg TCID50
[11]; Volume of blood 1000 ml, circulatory time 60 mins
  virus titer left (VSV): ≦−0.5 lg TCID50
[11]; Volume of blood 2000 ml, circulatory time 120 mins
  virus titer left (VSV): ≦−0.5 lg TCID50
